For orientation: inhibition means the percentage by which the read-out fell short of the control. Usually IC50 stands for the midpoint of a concentration-inhibition curve.

Experimental findings from ChEMBL document CHEMBL4251615, “Discovery of anilino-furo[2,3-d]pyrimidine derivatives as dual inhibitors of EGFR/HER2 tyrosine kinase and their anticancer activity” (Eur J Med Chem, 2018) are described below.

For series [1], the target named is T1, Epidermal growth factor receptor (Homo sapiens, UniProt P00533). In words: Inhibition of recombinant human C-terminal His/N-terminal GST-tagged EGFR (668 to 1210 residues) expressed in baculovirus infected Sf9 cells at 10 uM using biotin-labeled poly[Glu:Tyr] (4:1) as substrate after 30 mins by Kinase-Glo plus luminescence assay relative to control.
T1 sequence (P00533 whole entry, the tested form may be a part): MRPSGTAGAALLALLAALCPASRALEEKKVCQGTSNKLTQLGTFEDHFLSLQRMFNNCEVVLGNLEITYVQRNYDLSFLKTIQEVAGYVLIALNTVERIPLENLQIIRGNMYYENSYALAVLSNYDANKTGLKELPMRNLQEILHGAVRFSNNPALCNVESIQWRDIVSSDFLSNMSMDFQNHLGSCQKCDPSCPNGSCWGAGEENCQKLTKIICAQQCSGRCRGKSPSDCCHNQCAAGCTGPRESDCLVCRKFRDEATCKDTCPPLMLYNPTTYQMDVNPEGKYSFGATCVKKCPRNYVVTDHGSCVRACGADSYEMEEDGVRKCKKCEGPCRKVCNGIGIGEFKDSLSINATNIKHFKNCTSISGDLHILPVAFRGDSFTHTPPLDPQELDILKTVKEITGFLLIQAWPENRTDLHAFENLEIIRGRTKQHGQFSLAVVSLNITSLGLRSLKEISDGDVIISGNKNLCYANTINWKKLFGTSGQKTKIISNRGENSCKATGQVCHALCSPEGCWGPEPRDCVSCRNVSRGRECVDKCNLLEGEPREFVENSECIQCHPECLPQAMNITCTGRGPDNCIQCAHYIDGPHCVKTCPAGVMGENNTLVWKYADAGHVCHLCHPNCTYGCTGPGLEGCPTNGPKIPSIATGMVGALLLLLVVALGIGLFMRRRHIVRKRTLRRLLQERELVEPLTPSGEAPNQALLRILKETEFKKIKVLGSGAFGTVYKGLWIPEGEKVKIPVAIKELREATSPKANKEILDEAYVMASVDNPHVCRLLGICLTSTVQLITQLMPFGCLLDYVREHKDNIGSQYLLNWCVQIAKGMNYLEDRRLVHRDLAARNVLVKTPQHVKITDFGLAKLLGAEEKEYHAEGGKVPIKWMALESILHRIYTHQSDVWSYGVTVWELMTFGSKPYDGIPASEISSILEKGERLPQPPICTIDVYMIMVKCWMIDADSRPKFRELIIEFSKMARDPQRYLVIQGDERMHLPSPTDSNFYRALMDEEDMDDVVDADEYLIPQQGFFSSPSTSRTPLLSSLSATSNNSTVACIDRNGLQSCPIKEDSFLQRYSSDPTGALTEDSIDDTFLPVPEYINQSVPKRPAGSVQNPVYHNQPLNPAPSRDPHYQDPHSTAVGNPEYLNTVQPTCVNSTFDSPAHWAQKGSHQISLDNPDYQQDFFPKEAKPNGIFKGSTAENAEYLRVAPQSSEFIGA
Series [2] has as its target Receptor tyrosine-protein kinase erbB-2 (Homo sapiens) (UniProt P04626). As to the kind of experiment: Inhibition of recombinant human N-terminal GST-tagged HER2 (679 to 1255 residues) expressed in baculovirus infected Sf9 cells at 10 uM using poly[Glu:Tyr] (4:1) as substrate after 40 mins by Kinase-Glo plus luminescence assay relative to control. A general note: Kinase-Glo reads ATP consumption through a luciferase reaction.

A further series concerns MCF7. In words: Cytotoxicity against human MCF7 cells assessed as reduction in cell viability after 72 hrs by MTT assay. The format is functional, cell-based. As to conditions: MCF7, 72 h. Background: Tetrazolium dyes change colour on reduction, which living cells bring about.
Series [3] has as its system A549. In words: Cytotoxicity against human A549 cells assessed as reduction in cell viability after 72 hrs by MTT assay. The format is functional, cell-based. The conditions noted are these: A549, 72 h.
For series [4], the target named is T1, Epidermal growth factor receptor. In words: Inhibition of recombinant human C-terminal His/N-terminal GST-tagged EGFR (668 to 1210 residues) expressed in baculovirus infected Sf9 cells using biotin-labeled poly[Glu:Tyr] (4:1) as substrate after 30 mins by Kinase-Glo plus luminescence assay.
Series [5] relates to Ehrlich. As to the kind of experiment: Antitumor activity against mouse EAC cells implanted in albino mouse assessed as tumor growth inhibition at 5 mg/kg, po once daily for 8 consecutive days relative to control. The format is functional. As to conditions: read-out: TGI.
Series [6] concerns Ehrlich. As to the kind of experiment: Antitumor activity against mouse EAC cells implanted in albino mouse assessed as tumor growth inhibition at 10 mg/kg, po once daily for 8 consecutive days relative to control. In kind it is functional. The conditions noted are these: read-out: TGI.
Series [7] relates to Mus musculus. In words: Toxicity in albino mouse implanted with mouse EAC cells assessed as body weight change at 5 to 10 mg/kg, po once daily for 8 consecutive days. The format is organism-based. As to conditions: in vivo.
For series [8], the system named is Mus musculus. In words: Toxicity in albino mouse implanted with mouse EAC cells assessed as change in organ index at 5 to 10 mg/kg, po once daily for 8 consecutive days. In kind it is organism-based. The conditions noted are these: in vivo.
Series [9] deals with Ehrlich. In words: Antitumor activity against mouse EAC cells implanted in albino mouse assessed as focal cell death in thigh muscle tumor cells at 5 to 10 mg/kg, po once daily for 8 consecutive days by hematoxylin and eosin staining based light microscopic method. In kind it is functional, organism-based.
The test system of series [10] is Ehrlich. As to the kind of experiment: Antitumor activity against mouse EAC cells implanted in albino mouse assessed as increase in caspase-3 expression in tumor at 10 mg/kg, po once daily for 8 consecutive days by immunohistochemical analysis relative to control. In kind it is functional.
For series [11], the system named is Ehrlich. In words: Antitumor activity against mouse EAC cells implanted in albino mouse assessed as increase in cytochrome-c expression in tumor at 10 mg/kg, po once daily for 8 consecutive days by immunohistochemical analysis. In kind it is functional, organism-based.
Series [12] has as its system A549. In words: Cell cycle arrest in human A549 cells assessed as accumulation at pre-G1 phase after 24 hrs by propidium iodide staining based flow cytometry relative to control. In kind it is functional. For orientation: In flow cytometry, cells or beads pass a laser one at a time.
For series [13], the system named is A549. As to the kind of experiment: Cell cycle arrest in human A549 cells assessed as accumulation at G2/M phase after 24 hrs by propidium iodide staining based flow cytometry relative to control. The format is functional.
For series [14], the system named is A549. In words: Induction of apoptosis in human A549 cells assessed as live cells after 24 hrs by Annexin V-FITC/propidium iodide staining based flow cytometry (reference value: 97.93%). In kind it is functional.
Series [15] deals with A549. In words: Induction of apoptosis in human A549 cells assessed as early apoptotic cells after 24 hrs by Annexin V-FITC/propidium iodide staining based flow cytometry (reference value: 0.26%). In kind it is functional.
Series [16] relates to A549. In words: Induction of apoptosis in human A549 cells assessed as late apoptotic cells after 24 hrs by Annexin V-FITC/propidium iodide staining based flow cytometry (reference value: 0.11%). In kind it is functional.
For series [17], the system named is A549. In words: Induction of apoptosis in human A549 cells assessed as necrotic cells after 24 hrs by Annexin V-FITC/propidium iodide staining based flow cytometry (reference value: 0.17%). In kind it is functional.
The subject of series [18] is Ehrlich. As to the kind of experiment: Antitumor activity against mouse EAC cells implanted in albino mouse assessed as cell death in thigh muscle tumor cells at 10 mg/kg, po once daily for 8 consecutive days by hematoxylin and eosin staining based light microscopic method. In kind it is functional, organism-based.
For series [19], the system named is Ehrlich. In words: Antitumor activity against mouse EAC cells implanted in albino mouse assessed as tumor growth inhibition administered orally once daily for 8 consecutive days. In kind it is functional.
The subject of series [20] is A549. As to the kind of experiment: Induction of apoptosis in human A549 cells assessed as increase in early apoptotic cells after 24 hrs by Annexin V-FITC/propidium iodide staining based flow cytometry relative to control. In kind it is functional.
Series [21] deals with A549. In words: Induction of apoptosis in human A549 cells assessed as increase in late apoptotic cells after 24 hrs by Annexin V-FITC/propidium iodide staining based flow cytometry relative to control. In kind it is functional.

Calls of active or inactive are those of the source. The calls are words filed in the database; no cut-off is given here.

Sequence of Receptor tyrosine-protein kinase erbB-2 (Homo sapiens) (P04626 whole entry, the tested form may be a part): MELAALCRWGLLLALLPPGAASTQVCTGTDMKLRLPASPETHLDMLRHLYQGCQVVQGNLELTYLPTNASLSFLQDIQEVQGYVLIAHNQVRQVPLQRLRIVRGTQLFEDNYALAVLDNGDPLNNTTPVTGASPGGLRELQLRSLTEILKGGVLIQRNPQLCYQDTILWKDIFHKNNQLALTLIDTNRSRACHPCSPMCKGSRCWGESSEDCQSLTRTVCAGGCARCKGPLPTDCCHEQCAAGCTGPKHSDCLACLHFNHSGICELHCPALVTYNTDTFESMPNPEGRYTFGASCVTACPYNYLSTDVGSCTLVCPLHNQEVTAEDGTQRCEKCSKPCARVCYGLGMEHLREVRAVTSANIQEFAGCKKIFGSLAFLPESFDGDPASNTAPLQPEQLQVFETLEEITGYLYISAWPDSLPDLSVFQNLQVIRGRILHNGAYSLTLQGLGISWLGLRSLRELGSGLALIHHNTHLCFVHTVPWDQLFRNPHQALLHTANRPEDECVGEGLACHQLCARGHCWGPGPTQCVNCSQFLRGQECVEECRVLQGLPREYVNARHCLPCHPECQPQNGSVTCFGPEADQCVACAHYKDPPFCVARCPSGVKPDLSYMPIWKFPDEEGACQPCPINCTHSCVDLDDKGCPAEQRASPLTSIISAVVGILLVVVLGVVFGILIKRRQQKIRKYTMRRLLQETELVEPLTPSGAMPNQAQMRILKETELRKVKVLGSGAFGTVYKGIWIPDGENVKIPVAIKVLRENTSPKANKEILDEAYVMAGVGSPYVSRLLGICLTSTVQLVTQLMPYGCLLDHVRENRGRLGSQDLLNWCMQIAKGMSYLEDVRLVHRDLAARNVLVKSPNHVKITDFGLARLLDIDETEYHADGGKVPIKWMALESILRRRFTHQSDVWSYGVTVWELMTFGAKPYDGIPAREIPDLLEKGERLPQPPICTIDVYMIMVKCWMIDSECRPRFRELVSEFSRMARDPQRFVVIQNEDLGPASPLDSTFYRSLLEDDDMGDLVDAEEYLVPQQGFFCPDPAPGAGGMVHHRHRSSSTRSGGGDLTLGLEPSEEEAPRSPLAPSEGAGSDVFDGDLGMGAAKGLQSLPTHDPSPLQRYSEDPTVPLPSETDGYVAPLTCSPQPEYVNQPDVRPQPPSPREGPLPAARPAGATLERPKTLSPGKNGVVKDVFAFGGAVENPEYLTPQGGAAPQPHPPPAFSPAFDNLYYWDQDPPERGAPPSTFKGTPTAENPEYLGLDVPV

On to `CCOC(=O)c1c(C)oc2ncnc(Nc3ccc(OCc4cccc(Cl)c4)cc3)c12`, for which the inhibition came to 5% in series [1] and 7% in series [2]. Besides, the half-maximal inhibitory concentration (IC50) in the series on MCF7 worked out at 54 µM; with A549 [3], 513 µM.
For `Cc1oc2ncnc(Nc3ccc(OCc4cccc(F)c4)c(Cl)c3)c2c1C(=O)O`, the figures for the inhibition in series [1] and in [2] were 100% and 65%, respectively. In addition, the results for the half-inhibitory concentration (IC50) (in series [4]; with MCF7; in the series on A549 [3]) were 0.951 µM, 46 µM and 21.4 µM, respectively. Further, the inhibition in vivo at 5 mg/kg in the series on Ehrlich [5] stood at 34.9%. In addition, the inhibition in vivo at 10 mg/kg in the series on Ehrlich [6] is 49%. The Activity result with Mus musculus [7] is recorded as “Non-Toxic”; in the series with Mus musculus [8], “Non-Toxic”; with Ehrlich [10], 51%; in the series on A549 [14] it was 88.77%; in the series on A549 [15], 3.72%; with A549 [16] it was 4.84%. Moreover, the Activity with A549 [17] is recorded as 0.8%. Besides, the outcome with Ehrlich [9] and with Ehrlich [11] was Active. Further, the entries for the “fold change (FC)” value in the series on A549 [12] and in the series on A549 [13] were 17 and 3, respectively.
Regarding `COc1cc2ncnc(Nc3ccc(F)c(Cl)c3)c2cc1OCCCN1CCOCC1` [GEFITINIB], the outcome in the series with Ehrlich [18], in the series on Ehrlich [10] and with Ehrlich [11] was Active. Besides, the Activity is 84.12% with A549 [14], 5.84% in the series with A549 [15], 6.72% in the series with A549 [16] and 1.67% in the series with A549 [17].
For `CCOC(=O)c1c(C)oc2ncnc(Nc3cccc(OC)c3)c12`, in series [1], the inhibition came to 6%. Moreover, the IC50 with MCF7 and with A549 [3] was > 1000 µM throughout.
`Cc1oc2ncnc(Nc3cccc(Br)c3)c2c1CO`: in series [1], the inhibition is 70%. For the same molecule, the figures for the IC50 in the series with MCF7 and in the series with A549 [3] were 11 µM and 102 µM, respectively.
Take `Cc1cccc(Nc2ncnc3oc(C)c(CO)c23)c1`: the inhibition in series [1] was 72%. Besides, the IC50 in the series on MCF7 was 17 µM; in the series with A549 [3], 24 µM.
The like results for `CCOC(=O)c1c(C)oc2ncnc(Nc3ccccc3)c12` were, in that order, 22%, 851 µM and > 1000 µM.
For `Cc1cccc(Nc2ncnc3oc(C)c(C(=O)O)c23)c1` the same measures were 58%, 57.5 µM and 100 µM.
As for `Cc1oc2ncnc(Nc3cccc(Cl)c3)c2c1C(=O)NCCO`, the inhibition in [1] was 85%. Also, the half-inhibitory concentration (IC50) is 2.7 µM in series [4], > 1000 µM with MCF7 and > 1000 µM in the series on A549 [3].
For the molecule `Cc1oc2ncnc(Nc3ccccc3)c2c1C(=O)O`, the inhibition in series [1] was found to be 30%. The IC50 amounted to 246 µM in the series with MCF7 and 191 µM with A549 [3].
The like results for `CCOC(=O)c1c(C)oc2ncnc(Nc3cccc(Br)c3)c12` were, in that order, 26%, > 1000 µM and > 1000 µM.
For the molecule `C#Cc1cccc(Nc2ncnc3oc(C)c(C(=O)OCC)c23)c1`, in series [1], the inhibition turned out to be 26%. The IC50 in the series with MCF7 and in the series on A549 [3] was > 1000 µM in each case.
Consider `Cc1oc2ncnc(Nc3cccc(Cl)c3)c2c1C(=O)O`, for which the inhibition in series [1] was determined as 85%. The IC50 in series [4] was 0.901 µM; in the series on MCF7 it was 57.5 µM; with A549 [3], 95.5 µM.
For the molecule `CCOC(=O)c1c(C)oc2ncnc(Nc3cccc(C)c3)c12`, the inhibition in [1] came to 52%. Also, the IC50 in the series on MCF7 and with A549 [3] was > 1000 µM throughout.
`Cc1oc2ncnc(Nc3cccc(Br)c3)c2c1C(=O)O`: the inhibition in [1] was 94%. In addition, the concentration for half-maximal inhibition (IC50) in [4] was determined as 0.752 µM; with MCF7, 68 µM; in the series on A549 [3], 43 µM. Besides, the inhibition in vivo at 5 mg/kg in the series on Ehrlich [5] was found to be 61.4%. For the same molecule, in the series on Ehrlich [6], the inhibition in vivo at 10 mg/kg turned out to be 70.8%. The Activity result is given as “Non-Toxic” in the series with Mus musculus [7]; “Non-Toxic” in the series with Mus musculus [8]; 92.02% with A549 [14]; 2.78% with A549 [15]; 3.05% in the series on A549 [16]; 0.66% with A549 [17]. In addition, the result in the series on Ehrlich [18] and in the series with Ehrlich [11] was Active. The “fold change (FC)” value is reported as >2 in the series with Ehrlich [10], 12 in the series on A549 [12] and 2 in the series with A549 [13].
Regarding `CCOC(=O)c1c(C)oc2ncnc(Nc3ccc(OCc4ccc(C)cc4)cc3)c12`, the inhibition was determined as 6% in series [1] and 20% in [2]. Further, the half-maximal inhibitory concentration (IC50) with MCF7 and in the series on A549 [3] was > 1000 µM throughout.
Regarding `CCCNC(=O)c1c(C)oc2ncnc(Nc3cccc(C)c3)c12`, the inhibition in series [1] is 20%. Moreover, the half-maximal inhibitory concentration (IC50) with MCF7 and in the series with A549 [3] was > 1000 µM throughout.
Consider `Cc1oc2ncnc(Nc3cccc(Br)c3)c2c1C(=O)NCCO`, for which the inhibition in series [1] was determined as 73%. In addition, the values for the IC50 in the series on MCF7 and in the series on A549 [3] were 22 µM and 17.4 µM, respectively.
In the case of `Cc1oc2ncnc(Nc3cccc(Cl)c3)c2c1C(=O)NC(C)C`, the inhibition in series [1] stood at 21%. Moreover, the IC50 is 190 µM with MCF7 and > 1000 µM in the series on A549 [3].
For `CCOC(=O)c1c(C)oc2ncnc(Nc3cccc(Cl)c3)c12`, the inhibition in [1] was found to be 28%. Also, the IC50 with MCF7 and in the series with A549 [3] was > 1000 µM throughout.
`CCOC(=O)c1c(C)oc2ncnc(Nc3ccc(OCc4cccc(F)c4)c(Cl)c3)c12`: the inhibition worked out at 18% in [1] and 6% in series [2]. In addition, the values for the half-maximal inhibitory concentration (IC50) in the series on MCF7 and with A549 [3] were 257 µM and 0.5 µM, respectively. In addition, in the series with Ehrlich [5], the inhibition in vivo at 5 mg/kg amounted to 35.1%. Moreover, the inhibition in vivo at 10 mg/kg in the series with Ehrlich [6] came out at 67.1%. For the same molecule, the Activity result with Ehrlich [19] was “Dose-dependent effect”; in the series on Mus musculus [7], “Non-Toxic”; with Mus musculus [8] it was “Non-Toxic”; in the series on A549 [14], 81.19%; with A549 [15] it was 6.59%; with A549 [16], 8.69%. Moreover, the Activity in the series with A549 [17] is given as 1.67%. The outcome in the series on Ehrlich [18] and in the series on Ehrlich [11] was Active. For the same molecule, the “fold change (FC)” value in the series on Ehrlich [10] is reported as >2; in the series with A549 [12], 32; with A549 [13], 5; with A549 [20] it was 25; in the series with A549 [21] it was 79.
`CCOC(=O)c1c(C)oc2ncnc(Nc3ccc(OCc4ccccc4)cc3)c12`: the inhibition in series [1] came to 10%; in series [2], 3%. Also, the half-maximal inhibitory concentration (IC50) in the series on MCF7 and in the series on A549 [3] was > 1000 µM throughout.
